≈ marks a conversion by molar mass, not a printed value.
How the values were obtained:
Plasmodium falciparum [1] = assay: Antimalarial activity against chloroquine-sensitive Plasmodium falciparum D6 as [3H]hypoxanthine uptake; type: functional, organism-based
Plasmodium falciparum [2] = assay: Antimalarial activity against chloroquine-resistant Plasmodium falciparum W2 as [3H]hypoxanthine uptake; type: functional, organism-based

SMILES	IC50 (Plasmodium falciparum [1]) [µg/mL]	IC50 (Plasmodium falciparum [2]) [µg/mL]
COc1ccc(C[C@H]2c3cc(O)c(OC)cc3CCN2C)cc1O [(S)-RETICULINE]	5.8 (≈ 17.6 µM)	3.65 (≈ 11.1 µM)
COc1cc2c(cc1O)[C@@H](Cc1ccc(Oc3cc(C[C@H]4NCCc5cc(OC)c(O)cc54)ccc3OC)cc1)NCC2 [COSTARICINE]	0.05 (≈ 0.0858 µM)	0.294 (≈ 0.505 µM)
COc1cc2c(cc1O)C[C@H]1c3c(cc(OC)c(O)c3-2)CCN1C [ISOBOLDINE]	0.668 (≈ 2.04 µM)	0.904 (≈ 2.76 µM)
COc1cc2c(cc1O)C[C@H]1c3c(cc(OC)c(OC)c3-2)CCN1C	7.15 (≈ 20.9 µM)	2.7 (≈ 7.91 µM)
COc1cc2c(cc1O)C[C@H]1c3c(cc(O)c(OC)c3-2)CCN1C [BOLDINE]	2.13 (≈ 6.51 µM)	1.47 (≈ 4.49 µM)
COc1cc2c(cc1OC)[C@]13CCN(C)[C@@H](C2)[C@@H]1CC(=O)C(OC)C3 (some centres not stated)	7.1 (≈ 20.6 µM)	9.02 (≈ 26.1 µM)
COc1cc2c(cc1OC)-c1c(OC)c(OC)c(OC)c3c1[C@H](C2)NCC3	1.51 (≈ 4.07 µM)	1.75 (≈ 4.71 µM)
COc1ccc2c(c1O)[C@H](Cc1ccc(O)cc1)NCC2	4.1 (≈ 14.4 µM)	3.1 (≈ 10.9 µM)
COc1cc2c(cc1O)C[C@@H]1NCCc3cc(O)c(OC)c-2c31 [NORBOLDINE]	1.24 (≈ 3.96 µM)	1.68 (≈ 5.36 µM)
COc1cc2c(cc1O)C[C@@H]1NCCc3cc(OC)c(OC)c-2c31 [LAUROTETANINE]	3.9 (≈ 11.9 µM)	2.53 (≈ 7.73 µM)
COc1cc2c(cc1O)[C@H](Cc1ccc(O)cc1)N(C)CC2	2.73 (≈ 9.12 µM)	3.81 (≈ 12.7 µM)
C=C[C@H]1CN2CC[C@H]1C[C@H]2[C@H](O)c1ccnc2ccc(OC)cc12 [QUININE]	0.0157 (≈ 0.0484 µM)	0.0388 (≈ 0.12 µM)
C[C@@H]1CC[C@H]2[C@@H](C)C(=O)O[C@@H]3O[C@@]4(C)CC[C@@H]1[C@]32OO4 [ARTEMISININ]	0.0041 (≈ 0.0145 µM)	0.0022 (≈ 0.00779 µM)
COc1ccc2c(c1O)[C@H](Cc1ccc(O)cc1)N(C)CC2	4.09 (≈ 13.7 µM)	4.48 (≈ 15 µM)
COc1ccc2c(c1O)-c1c(OC)c(OC)cc3c1[C@H](C2)NCC3	1.99 (≈ 6.08 µM)	1.9 (≈ 5.8 µM)
COc1ccc2c(c1O)-c1c(OC)c(OC)cc3c1[C@H](C2)N(C)CC3 [ISOCORYDINE]	1.9 (≈ 5.57 µM)	2.83 (≈ 8.29 µM)

From ChEMBL document CHEMBL1158239, “Costaricine, a new antiplasmodial bisbenzylisoquinoline alkaloid from Nectandra salicifolia trunk bark” (J Nat Prod, 1996)
